Test results as given in patent publication US20230172925A1, “SKIN-CARE COMPOSITIONS AND USES THEREOF” (AHAVA - DEAD SEA LABORATORIES LTD., priority 2019, published 2023).

Columns and labels:
Format in all cases: cell-based
TNFα = test: Human skin organ culture with UVB stressor, TNFα secretion in the medium; settings: UVB 200 mJ/cm2; irradiated sample = 100% (53±30 pg/ml); complex, DSE 3.0%, β-Caroten 15.6 ppm
Procedure: (§1) Topical exposure till 48 hours in total (24 hr recovery following topical application+24 hr after exposure to UVB irradiation) with UVB radiation as stressor on human skin model
(§2) The following general procedure was used in the study:
(§3) Day 1: Topical application of 3 μl of each sample solution on the epidermis of each skin explant. Incubate for 24 hours. SDS 10% was applied only once, and was not farther irradiated with UVB.
(§4) Day 2: Skin explants were washed once with PBS and irradiated with UVB lamp at 200 mJ/cm2. After radiation it was incubated for 30 min and then topically apply each treatment (sample solution) again. Control was not irradiated under UVB light. UVB radiated control was without any treatment except radiation.
(§5) Day 3: Viability and Caspase3 activity were measured for the epidermis layer. The medium was collected for cytokines test.
FIG. 4 illustrates the TNFα secretion results in the medium as observed with 2 to 4 repetition of the tests. In FIG. 4 the TNFα secretion of the irradiated sample “UVB” was selected as 100% and it equals 53±30 pg/ml.

IL-1α = test: Human skin organ culture with UVB stressor, IL-1α secretion in the medium; settings: UVB; OSM 0.5%, β-Caroten 15.6 ppm
Procedure: as §1, §2, §3, §4, §5
FIG. 5 illustrates the IL-1α secretion results in the medium as observed with 3 to 4 repetition of the tests. In FIG. 5 the IL-1α secretion of the irradiated sample “UVB” was selected as 100% and it equals 8.1±1.0 pg/ml.

[1] = test system: MatTek EFT-400 full thickness tissues; test: DNA microarray gene expression in skin equivalents, complex vs individual ingredients (Example 5); design: key to Genes up and downregulation in pathway: + = up-regulated; − = down-regulated; *non-significant down-regulation, thus, regulation is considered as non-affected (NA); settings: for Up-Regulated Genes (number): cut off of two fold change of adjusted Fold Change, 48 hours
Procedure: MatTek EFT-400 full thickness tissues were used as the model for this study. Upon arrival, the full thickness tissues were placed into 6 wells plates with 2 ml of culture media and incubated overnight at 37±2° C. and 5±1% CO2. After this overnight incubation the culture media was replaced with 5 ml of fresh media and the tissues were treated topically with the test materials prepared in distilled water as follows:
After the application of the test materials the tissues were incubated at 37±2° C. and […] for 48 hours.
At the end of the treatment period, the tissues were rinsed and transferred to a 2 ml centrifuge tube containing 700 μl of lysis buffer and homogenized. After centrifuging at 14,000×g for 10 minutes at 4° C. the supernatant from each tube was transferred to a new 1.5 ml tube and mixed with and equal volume of 64% ethanol. After mixing the solutions was transferred to glass fiber filter cartridges and the cartridges were loaded into a 1.5 ml collection tube centrifuged for 1 minute at 14,000 RPM in a Napco 2002 Microcentrifuge with a DA-6T fixed angle rotor. The flow through was discarded and any remaining mixture was loaded into the filter cartridge and the centrifugation process was repeated until all of the mixture had been processed. The filter was then washed to remove any residual cellular debris from the RNA bound to the glass fibers by subsequently applying 700 μl of wash solution 1 (1 time) and 500 μl of wash solution 2 (2 times) to the filter cartridge and centrifuging at 14,000 RPM for 1 minute to pass each wash through the cartridge. After each wash, the flow through was discarded. After the final wash one final spin was performed without wash solution to remove any residual wash solution in the filter cartridge. The RNA bound to the glass fibers within the cartridge was then eluted by applying 40 μl of TE buffer (10 mM Tris-HCl, 1 mM EDTA, preheated to 70-80° C.) to the cartridge and centrifuging the cartridge in a new collection tube at 14,000 RPM for one minute. The elution process was then repeated a second time using 20 μl of TE buffer.
First Strand cDNA Synthesis: To start the first strand synthesis, 10 μl of total RNA for each sample was added to a 600 μl PCR tube and the total volume of liquid in the tube will be adjusted to 11 μl with DEPC H2O. Next, 1 μl of T7 Oligo(dT) primer was added and the tube was incubated in a water bath at 70±2° C. for 10 minutes to denature the RNA and then placed on ice to allow the primers to anneal to the poly A ends of the mRNA. After cooling 2 μl of 10× first strand buffer, 1 μl of RNAse inhibitor and 4 μl of dNTP mix were added to each tube, and the tube was incubated at 42° C. in a hybridization oven (Labnet Problot). As soon as the tube was heated, 1 μl of Reverse Transcriptase was added and the tubes were returned to 42±2° C. for 2 hours. At the end of the two hours the tubes were briefly centrifuged to collect all of the fluid at the bottom of the tube and then placed on ice.
Two tubes were prepared for the labeling process, one for Cy3 labeling (green) and one for Cy5 labeling (red). To the Cy3 tube 2 μg of aRNA prepared from the untreated/control sample (the actual color assignment for each sample is not important, but for consistency Cy3 is normally used for the untreated sample) and enough DEPC H2O was added to bring the total volume up to 4 μl. To the Cy5 tube 2 μg of aRNA prepared from the sample treated with the test material and enough DEPC H2O was added to bring the total volume up to 4 μl. To both tubes 5 μl of ASAP labeling buffer was added along with 1 μl of the specific dye for the tube (Cy3 or Cy5). The tubes were incubated for 15 minutes at 85±2° C. At the end of the 15 minutes the tubes were placed on ice to cool them and then add 2.5 μl of ASAP stop solution was added to each tube.

[2] = KEGG_NUCLEOTIDE_EXCISION_REPAIR
[3] = KEGG_SIGNALING_PATHWAYS_REGULATING_PLURIPOTENCY_OF_STEM_CELLS
[4] = WIKI_ASSEMBLY_OF_COLLAGEN_FIBRILS_AND_OTHER_MULTIMERIC_STRUCTURES

`CC1=C(/C=C/C(C)=C/C=C/C(C)=C/C=C/C=C(C)/C=C/C=C(C)/C=C/C2=C(C)CCCC2(C)C)C(C)(C)CCC1` [β-Caroten, β-carotene] was tested, and the “TNFα concentration as % of the irradiated skin explant” value (TNFα) was 70%, the “increase in IL-1α secretion compared to the control” value (IL-1α) was 20% and the z-score ([1]; KEGG_APOPTOSIS) was −0.5665. The z-score ([1]; KEGG_BASE_EXCISION_REPAIR) was −1.4296, the “Genes up and downregulation in pathway” value ([1]; KEGG_CELL_CYCLE) was “−” and the z-score ([1]; KEGG_CELL_CYCLE) was −2.4656. The z-score ([1]; KEGG_CIRCADIAN_RHYTHM_MAMMAL) was −1.209, the z-score ([1]; KEGG_FATTY_ACID_BIOSYNTHESIS) was −0.6185 and the z-score ([1]; KEGG_FATTY_ACID_DEGRADATION) was −1.0292. The z-score ([1]; KEGG_GLYCOLYSIS_GLUCONEOGENESIS) was −1.0754, the z-score ([1]; KEGG_NF_KAPPA_B_SIGNALING_PATHWAY) was 3.1522 and the “Genes up and downregulation in pathway” value [1, 2] was “−”. The z-score [1, 2] was −1.5901, the z-score ([1]; KEGG_OXIDATIVE_PHOSPHORYLATION) was 3.5721 and the “Genes up and downregulation in pathway” value ([1]; KEGG_P53_SIGNALING_PATHWAY) was “−”. The z-score ([1]; KEGG_P53_SIGNALING_PATHWAY) was −1.6942, the z-score ([1]; KEGG_PROTEASOME) was 1.1865 and the z-score ([1]; KEGG_RETINOL_METABOLISM) was −0.6377. For the same compound, the “Genes up and downregulation in pathway” value [1, 3] was “−”, the z-score [1, 3] was −2.818 and the z-score ([1]; KEGG_SPHINGOLIPID_METABOLISM) was −0.4773. It also gave a z-score ([1]; KEGG_TH1_AND_TH2_CELL_DIFFERENTIATION) of 1.3936, a z-score ([1]; KEGG_TIGHT_JUNCTION) of −0.07358 and a z-score ([1]; KEGG_TNF_SIGNALING_PATHWAY) of 5.6735. It also gave a z-score ([1]; KEGG_T_CELL_RECEPTOR_SIGNALING_PATHWAY) of 1.5111, a z-score ([1]; KEGG_WNT_SIGNALING_PATHWAY) of −1.5459 and a z-score ([1]; WIKI_ACTIVATION_OF_MATRIX_METALLOPROTEINASES) of 0.8244. The “Genes up and downregulation in pathway” value [1, 4] was “−”, the z-score [1, 4] was −5.9295 and the z-score ([1]; WIKI_COLLAGEN_BIOSYNTHESIS_AND_MODIFYING_ENZYMES) was 4.7943. For the same compound, the “regulation of collagen synthesis and extracellular matrix pathways (Z-Score heatmap, in words)” value ([1]; WIKI_COLLAGEN_BIOSYNTHESIS_AND_MODIFYING_ENZYMES, WIKI_EXTRACELLULAR_MATRIX_ORGANIZATION, WIKI_DEGRADATION_OF_THE_EXTRACELLULAR_MATRIX, WIKI_COLLAGEN_DEGRADATION, WIKI_ASSEMBLY_OF_COLLAGEN_FIBRILS_AND_OTHER_MULTIMERIC_STRUCTURES) was “very much down regulated”, the z-score ([1]; WIKI_COLLAGEN_DEGRADATION) was −5.0219 and the z-score ([1]; WIKI_DEGRADATION_OF_THE_EXTRACELLULAR_MATRIX) was 4.6457. The “Genes up and downregulation in pathway” value ([1]; WIKI_ELASTIC_FIBRE_FORMATION) was “−”, the z-score ([1]; WIKI_ELASTIC_FIBRE_FORMATION) was −2.0745 and the z-score ([1]; WIKI_ELECTRON_TRANSPORT_CHAIN_IN_MITOCHONDRIA) was 2.7536. The z-score ([1]; WIKI_EXTRACELLULAR_MATRIX_ORGANIZATION) was 4.5653, the “Genes up and downregulation in pathway” value ([1]; WIKI_KERATINIZATION) was “+” and the z-score ([1]; WIKI_KERATINIZATION) was 6.3972. The z-score ([1]; WIKI_NRF2_PATHWAY) was 1.7004, the z-score ([1]; WIKI_RESPIRATORY_ELECTRON_TRANSPORT_ATP_SYNTHESIS) was 2.2177 and the z-score ([1]; WIKI_SPHINGOLIPID_METABOLISM) was −0.9459. For the same compound, the “Up-Regulated Genes (number)” value ([1]; 19254 genes evaluated) was 196 and the “Up-Regulated Genes (number)” value ([1]; second column of Table 6) was 503.
